From article PMC11204507, “Mechanistic Insights into the Neurotoxicity of 2,5-Dimethoxyphenethylamines (2C) and Corresponding N-(2-methoxybenzyl)phenethylamine (NBOMe) Drugs” (Journal of Xenobiotics, 2024)

Columns and labels:
[1] = tested on: primary rat cortical cultures; assay: Neutral red (NR) uptake cytotoxicity assay; assay type: cell-based; details: for Bottom (baseline, % control) / Top (maximal cell death, % control): fitted NR curve, primary rat cortical neurons, 24 h; for EC50: primary rat cortical cultures, 24 h of exposure, mean (95% CI)
Procedure: Female Wistar rats were obtained from Charles River Laboratories. The animals were allowed free access to rat chow and water, being maintained on a 12 h/12 h light/dark cycle, under controlled temperature (20 ± 2 °C) and humidity (40–60%). Primary cortical cultures were prepared as previously described. Briefly, for embryo collection, the pregnant female Wistar rats were anesthetized with isoflurane and subsequently administered ketamine and xylazine (200 + 100 μL, intraperitoneal). At the end of the dissection procedures, the female rat was euthanized with the administration of sodium pentobarbital ([…]). The embryos were used between embryonic day 16 (E16) and E19, considering the mating day as E0. The embryos were dissected from the uterus, and the heads were decapitated and placed in ice-cold 0.1 M PBS supplemented with 0.6% (w/v) glucose. The cortex dissection was performed under a Zeiss stereo microscope (Stemi DV4). Following trypsinization (0.05% trypsin/EDTA) and DNAse I treatment, the tissue pieces were mechanically dissociated, and the cells seeded in freshly prepared neurobasal medium (supplemented with 2% B-27, 100 U/mL of penicillin, 100 μg/mL of streptomycin, and 1% GlutaMAX^TM supplement) at a density of 150,000 cells/cm^2 in 96-well plates precoated, overnight, with 0.05 mg/mL PLL solution (prepared in 0.1 M borate buffer, pH 8.5). The cultures were maintained at 37 °C in a 5% CO2 air atmosphere. The medium was renewed at 4 days in vitro (DIV) by replacing half of the volume with fresh medium, and the cultures were used at 8 DIV.
The differentiated SH-SY5Y cells (25,000 cells/cm^2) and primary rat cortical cultures (150,000 cells/cm^2) were seeded onto 96-well plates as previously described.
Accordingly, 6 days after seeding (differentiated SH-SY5Y cells) or at 8 DIV (primary cultures), the cells were exposed, for 24 h (37 °C, 5% CO2), to different concentrations of the drugs (0–1000 µM). Thus, the tested concentrations ranged from 0 to 1000 µM for 2C-T-2 and 2C-T-4; 0 to 500 µM for 2C-T-7; 0 to 250 µM for 25T2-NBOMe, and 0 to 100 µM for 25T4-NBOMe and 25T7-NBOMe.
The NR uptake assay is based on the detection of viable cells through the incorporation of the NR dye by the cell’s lysosomes. In brief, after 24 h of exposure to the tested drugs, the differentiated SH-SY5Y cells and primary rat cortical cultures were incubated with NR (50 µg/mL in complete medium) for 90 or 210 min, respectively, at 37 °C, in a 5% CO2-95% air atmosphere. To extract the absorbed dye, an acidified ethanol solution was used, and the absorbance was then measured at 540 nm in a multi-well plate reader (PowerWaveX, BioTek Instruments, Winooski, VT, USA). The cytotoxicity was estimated by the percentage of NR uptake relative to the control cells, and a minimum of 4 independent experiments were conducted in triplicate.

[2] = tested on: differentiated SH-SY5Y cells; assay: Mitochondrial membrane potential, JC-1 dye; assay type: cell-based, human; details: control 100.0%
Source text: Mitochondrial membrane potential (ΔΨm) is a valuable parameter that reflects the energy status and functional integrity of cells, and the JC-1 dye is widely used as an indicator of ΔΨm. In healthy cells with high ΔΨm, JC-1 forms J-aggregates that emit red fluorescence. In apoptotic or unhealthy cells with low ΔΨm, JC-1 remains in its monomeric form and emits green fluorescence. The ratio of red to green fluorescence intensity is proportional to the degree of polarization of the mitochondrial membrane (a higher ratio indicates a more polarized membrane).
Thus, the SH-SY5Y cells were seeded onto 24-well plates (25,000 cells/cm^2) following the previously described seeding and differentiation protocol. On the day of the experiment, the cells were exposed to different concentrations of the tested drugs (EC20 and EC50) for 24 h (37 °C, 5% CO2). CCCP (100 µM, 2 h) was used as a positive control for mitochondrial membrane depolarization. At the end of the incubation period, the medium was removed, and the cells were incubated, for 30 min, with 10 µM JC-1 under light protection (37 °C, 5% CO2). Subsequently, the plates were centrifuged (5 min, 300× g, room temperature), the supernatants were rejected, and the cells were washed 2 times with warm HBSS with calcium and magnesium. Fluorescence was recorded at the wavelengths of 485 nm excitation and 535 nm emission for JC-1 monomers and 535 nm excitation and 595 nm emission wavelengths for J-aggregates in a multi-well plate reader (PowerWaveX, BioTek Instruments, Winooski, VT, USA). The results are presented as the percentage of JC-1 red/green fluorescence ratio relative to the control cells, and a minimum of 5 independent experiments were conducted in triplicate.

[3] = tested on: differentiated SH-SY5Y cells; assay: Intracellular ATP levels, luciferin-luciferase bioluminescence; assay type: cell-based, human
Procedure: Adenosine triphosphate (ATP) is often considered the primary energy currency of cells, being essential for several cellular activities, such as active transport, metabolism, and cell signaling, among many others. The intracellular ATP levels were measured using a bioluminescence method, consisting of the reaction between luciferin and ATP in the presence of luciferase, where the resulting light intensity is directly proportional to the amount of ATP present in the cells.
Thus, the SH-SY5Y cells were seeded onto 6-well plates (25,000 cells/cm^2) following the previously described seeding and differentiation protocol. On the day of the experiment, the cells were exposed to different concentrations of the tested drugs (EC20 and EC50) for 24 h (37 °C, 5% CO2). At the end of the incubation period, the cells were centrifuged (5 min, 250× g, 4 °C), the supernatants were rejected, and proteins were precipitated with 5% HClO4 for at least 30 min (4 °C). Subsequently, the acidic samples were collected from the plates, centrifuged (5 min, 16,000× g, 4 °C), and the supernatants were stored until further ATP analysis (−80 °C). To assess protein content, the pellets were resuspended in 1 M NaOH, maintained at 4 °C overnight, and stored until further analysis (−20 °C). A Bio-Rad DC™ protein assay kit (Bio-Rad Laboratories, Hercules, CA, USA) was used to analyze protein content, in accordance with the manufacturer’s guidelines.
Before the ATP quantification, the acidic samples were diluted (1:5) with 5% HClO4, and the diluted samples/standards were neutralized with an ice-cold KHCO3 solution (1:1) and centrifuged (16,000× g, 5 min, 4 °C). Then, 75 µL of each sample/standard supernatant was transferred into a white 96-well plate, 75 µL of a luciferin (300 µM)-luciferase (3,000,000 U/mL) solution (10–90%, respectively) was added, and bioluminescence (560 nm, 28 °C) was immediately measured in a multi-well plate reader (PowerWaveX, BioTek Instruments, Winooski, VT, USA).
ATP levels were standardized to protein content. The results are presented as a percentage relative to the control cells (0 µM). A minimum of 6 independent experiments were conducted in duplicate.

SMILES | Bottom (baseline, % control) [1] | Top (maximal cell death, % control) [1] | EC50 [1] | mitochondrial membrane polarization (JC-1 red/green ratio), % of the control cells ([2]; drug at its EC20, 24 h) | mitochondrial membrane polarization (JC-1 red/green ratio), % of the control cells ([2]; drug at its EC50, 24 h) | decrease of intracellular ATP levels relative to control cells ([3]; drug at its EC20, 24 h) | decrease of intracellular ATP levels relative to control cells ([3]; drug at its EC50, 24 h)
CCCSc1cc(OC)c(CCN)cc1OC.Cl [2C-T-7, 2-(2,5-dimethoxy-4-(propylthio)phenyl)ethan-1-aminium chloride] | 1.452 % control | 84.63 % control | 73.6 µM | 50.8% | 50.0% | 16.9% | 24.1%
CCSc1cc(OC)c(CCNCc2ccccc2OC)cc1OC.Cl [25T2-NBOMe, 2-(4-(ethylthio)-2,5-dimethoxyphenyl)-N-(2-methoxybenzyl)ethan-1-aminium chloride] | 3.637 % control | 81.45 % control | 26.5 µM | 78.7% | 74.3% | 16.0% | 23.5%
CCCSc1cc(OC)c(CCNCc2ccccc2OC)cc1OC.Cl [25T7-NBOMe, 2-(2,5-dimethoxy-4-(propylthio)phenyl)-N-(2-methoxybenzyl)ethan-1-aminium chloride] | 3.972 % control | 82.95 % control | 14.4 µM | 90.8% | 76.8% | 12.0% | 21.4%
CCSc1cc(OC)c(CCN)cc1OC.Cl [2C-T-2, 2-(4-(ethylthio)-2,5-dimethoxyphenyl)ethan-1-aminium chloride] | 1.639 % control | 83.85 % control | 216 µM | 58.4% | 55.2% | 18.1% | 24.8%
COc1cc(SC(C)C)c(OC)cc1CCNCc1ccccc1OC.Cl [25T4-NBOMe, 2-(4-(isopropylthio)-2,5-dimethoxyphenyl)-N-(2-methoxybenzyl)ethan-1-aminium chloride] | 2.059 % control | 83.51 % control | 19.9 µM | 83.5% | 70.5% | 14.6% | 21.8%
COc1cc(SC(C)C)c(OC)cc1CCN.Cl [2C-T-4, 2-(4-(isopropylthio)-2,5-dimethoxyphenyl)ethan-1-aminium chloride] | 0.7855 % control | 82.56 % control | 110 µM | 58.3% | 56.1% | 17.8% | 28.7%
